From patent US9918931B2, “Method for providing a customized skin care product to a customer” (L'OREAL, priority 2016, dated 2018)

Assay: Solubility of active ingredients in base oil composition
Type: physicochemical
Conditions: active ingredient in base oil composition; loading without asterisk

Loading (wt %), soluble (not marked *): 3%
SMILES: O=C(O)c1ccccc1O [Salicylic Acid, reference compound]
